Source: US9139567B2, “Arylpyrazole ethers as inhibitors of leukotriene A4 hydrolase” (Boehringer Ingelheim International GmbH, priority 2011, dated 2015)

Tests used:
[1] = test system: LTB4 production in human whole blood; assay: LTB4 production inhibition assay in human whole blood (calcimycin-stimulated); format: cell-based; details: heparinized human whole blood, 15 min 37° C., calcimycin 20 μM 30 min, plasma LTB4 by HTRF
Experimental: Compounds of the invention are additionally tested in a human whole blood assay to determine their ability to inhibit the synthesis of LTB4 in a cellular system. Compounds are combined with heparinized human whole blood and incubated for 15 minutes at 37° C. Calcimycin (20 μM final, prepared in phosphate-buffered saline, pH 7.4) is then added and the mixture is incubated for another 30 minutes at 37° C. The samples are centrifuged for 5 min at low speed (1500×g) and the plasma layer is removed. Plasma LTB4 concentrations are then measured using an antibody-based homogenous time-resolved fluorescence method (CisBio, Bedford, Mass.).

human LTA4 hydrolase = biological target: T1, human LTA4 hydrolase (Homo sapiens, UniProt P09960); assay: LTA4H enzyme assay (cleavage of Arg-AMC, fluorescence); format: biochemical; details: LTA4H enzyme 1 nM, Arg-AMC substrate 50 μM, room temperature 1 h
T1 sequence (P09960 1-611): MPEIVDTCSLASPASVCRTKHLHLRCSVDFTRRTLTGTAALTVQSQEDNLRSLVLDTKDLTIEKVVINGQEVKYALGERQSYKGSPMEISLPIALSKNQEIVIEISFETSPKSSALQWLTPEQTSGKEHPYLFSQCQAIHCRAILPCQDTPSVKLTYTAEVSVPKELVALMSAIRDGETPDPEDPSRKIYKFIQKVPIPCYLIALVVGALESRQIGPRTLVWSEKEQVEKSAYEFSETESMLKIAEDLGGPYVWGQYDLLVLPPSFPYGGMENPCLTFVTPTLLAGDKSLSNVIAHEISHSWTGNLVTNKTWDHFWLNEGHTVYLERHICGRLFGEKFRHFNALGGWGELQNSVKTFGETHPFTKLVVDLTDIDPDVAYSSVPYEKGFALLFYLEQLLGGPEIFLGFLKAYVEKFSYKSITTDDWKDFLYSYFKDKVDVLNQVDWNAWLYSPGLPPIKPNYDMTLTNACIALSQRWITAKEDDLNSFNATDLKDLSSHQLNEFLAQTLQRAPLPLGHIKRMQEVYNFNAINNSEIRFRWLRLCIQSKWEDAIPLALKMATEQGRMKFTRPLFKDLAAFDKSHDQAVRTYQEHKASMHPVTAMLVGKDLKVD
Experimental: Compounds are assessed for the ability to interact with human LTA4 hydrolase in an enzymatic assay that measures the ability of the enzyme to cleave the peptide bond of arginyl-aminomethylcoumarin (Arg-AMC). LTA4H Enzyme (1 nM final), Arg-AMC substrate (50 μM final), and compound are combined in a reaction buffer (50 mM Tris-HCl (pH 7.5), 100 mM KCl, 0.5% bovine serum albumin) at room temperature for 1 h. The formation of product is assessed by measuring the fluorescence of aminomethylcoumarin product (excitation wavelength 380 nm/emission wavelength 460 nm).

Row | IC50 [1] [nM] | IC50 (human LTA4 hydrolase) [nM] | SMILES
1 | 52 | 0.2 | c1cc(-c2ccc(Oc3ccc(OCC4COCCN4)cc3)nc2)[nH]n1 (racemic) [Example 16, 3-[(4-{[5-(1H-pyrazol-5-yl)pyridin-2-yl]oxy}phenoxy)methyl]morpholine]
2 | 246 | 0.2 | O=C1CC[C@H](COc2ccc(Oc3ccc(-c4ccn[nH]4)cc3)cc2)N1 [Example 1, (5R)-5-({4-[4-(1H-pyrazol-5-yl)phenoxy]phenoxy}methyl)pyrrolidin-2-one]
3 | 163 | 0.2 | O=C1CC[C@@H](COc2ccc(Oc3ccc(-c4ccn[nH]4)cc3)cc2)N1 [Example 2, (5S)-5-({4-[4-(1H-pyrazol-5-yl)phenoxy]phenoxy}methyl)pyrrolidin-2-one]
4 | 142 | 0.2 | O=C1CC[C@@H](COc2ccc(Oc3ccc(-c4ccn[nH]4)cn3)cc2)N1 [Example 3, (5S)-5-[(4-{[5-(1H-pyrazol-5-yl)pyridin-2-yl]oxy}phenoxy)methyl]pyrrolidin-2-one]
5 | 1040 | 3.9 | c1cc(-c2ccc(Oc3ccc(O[C@@H]4CCOC4)cc3)cc2)[nH]n1 [Example 4, 5-(4-{4-[(3R)-tetrahydrofuran-3-yloxy]phenoxy}phenyl)-1H-pyrazole]
6 | 1350 | 6.8 | c1cc(-c2ccc(Oc3ccc(OCC4CCCO4)cc3)cc2)[nH]n1 (centres unmarked) [Example 5, 5-{4-[4-(tetrahydrofuran-2-ylmethoxy)phenoxy]phenyl}-1H-pyrazole]
7 | 1080 | 3.5 | O=C1CC[C@H](Oc2ccc(Oc3ccc(-c4ccn[nH]4)cc3)cn2)CN1 [Example 6, (5S)-5-({5-[4-(1H-pyrazol-5-yl)phenoxy]pyridin-2-yl}oxy)piperidin-2-one]
8 | 280 | 0.5 | CN1CC(COc2ccc(Oc3ccc(-c4ccn[nH]4)cc3)cc2)CC1=O (centres unmarked) [Example 7, 1-methyl-4-({4-[4-(1H-pyrazol-5-yl)phenoxy]phenoxy}methyl)pyrrolidin-2-one]
9 | 222 | 0.5 | O=C1CCC(Oc2ccc(Oc3ccc(-c4ccn[nH]4)cc3)cc2)CN1 (centres unmarked) [Example 8, 5-{4-[4-(1H-pyrazol-5-yl)phenoxy]phenoxy}piperidin-2-one]
10 | ≥ 5000 | 76.7 | O=C1NCC[C@@H]1Oc1ccc(Oc2ccc(-c3ccn[nH]3)cc2)cc1 [Example 9, (3S)-3-{4-[4-(1H-pyrazol-5-yl)phenoxy]phenoxy}pyrrolidin-2-one]
11 | 126 | 0.2 | O=C1NC(COc2ccc(Oc3ccc(-c4ccn[nH]4)cc3)cc2)CO1 (centres unmarked) [Example 10, 4-({4-[4-(1H-pyrazol-5-yl)phenoxy]phenoxy}methyl)-1,3-oxazolidin-2-one]
12 | 573 | 1.3 | O=C1NCC(COc2ccc(Oc3ccc(-c4ccn[nH]4)cc3)cc2)O1 (centres unmarked) [Example 11, 5-({4-[4-(1H-pyrazol-5-yl)phenoxy]phenoxy}methyl)-1,3-oxazolidin-2-one]
13 | 104 | 0.1 | O=C1N[C@H](COc2ccc(Oc3ccc(-c4ccn[nH]4)cc3)cc2)CO1 [Example 12, (4R)-4-({4-[4-(1H-pyrazol-5-yl)phenoxy]phenoxy}methyl)-1,3-oxazolidin-2-one]
14 | 214 | 0.5 | O=C1CC[C@H](Oc2ccc(Oc3ccc(-c4cc[nH]n4)cc3)cc2)CN1 [Example 13, (5S)-5-{4-[4-(1H-pyrazol-3-yl)phenoxy]phenoxy}piperidin-2-one]
15 | 178 | 0.3 | O=C1CC[C@@H](Oc2ccc(Oc3ccc(-c4cc[nH]n4)cc3)cc2)CN1 [Example 14, (5R)-5-{4-[4-(1H-pyrazol-3-yl)phenoxy]phenoxy}piperidin-2-one]
16 | 150 | 0.3 | O=C1N[C@@H](COc2ccc(Oc3ccc(-c4ccn[nH]4)cc3)cc2)CO1 [Example 15, (4S)-4-({4-[4-(1H-pyrazol-5-yl)phenoxy]phenoxy}methyl)-1,3-oxazolidin-2-one]
17 | 425 | 1.5 | O=C1CC[C@@H](Oc2ccc(Oc3ccc(-c4ccn[nH]4)cn3)cc2)CN1 [Example 17, (5R)-5-(4-{[5-(1H-pyrazol-5-yl)pyridin-2-yl]oxy}phenoxy)piperidin-2-one]

Row | IC50 [1] [nM] | IC50 (human LTA4 hydrolase) [nM] | SMILES
18 | 581 | 0.8 | O=C1CC[C@@H](Oc2ccc(Cc3ccc(-c4ccn[nH]4)cc3)cc2)CN1 [Example 18, (5R)-5-{4-[4-(1H-pyrazol-5-yl)benzyl]phenoxy}piperidin-2-one]
19 | 554 | 1.9 | O=C1CC[C@@H](Oc2ccc(Oc3ccc(-c4ccn[nH]4)cc3)cn2)CN1 [Example 19, (5R)-5-({5-[4-(1H-pyrazol-5-yl)phenoxy]pyridin-2-yl}oxy)piperidin-2-one]
20 | 229 | 0.6 | O=C1N[C@@H](COc2ccc(Cc3ccc(-c4ccn[nH]4)cc3)cc2)CO1 [Example 20, (4S)-4-({4-[4-(1H-pyrazol-5-yl)benzyl]phenoxy}methyl)-1,3-oxazolidin-2-one]
21 | 813 | 0.7 | O=C1CCCN1CCOc1ccc(Oc2ccc(-c3ccn[nH]3)cc2)cc1 [Example 21, 1-(2-{4-[4-(lH-pyrazol-5-yl)phenoxy]phenoxy}ethyl)pyrrolidin-2-one]
22 | 179 | 0.2 | c1cc(-c2ccc(Oc3ccc(OCCN4CCOCC4)cc3)cc2)[nH]n1 [Example 22, 4-(2-{4-[4-(1H-pyrazol-5-yl)phenoxy]phenoxy}ethyl)morpholine]
23 | 529 | 0.7 | O=C1CCCN1CCCOc1ccc(Oc2ccc(-c3ccn[nH]3)cc2)cc1 [Example 23, 1-(3-{4-[4-(1H-pyrazol-5-yl)phenoxy]phenoxy}propyl)pyrrolidin-2-one]
24 | 123 | 0.2 | O=C1N[C@H](COc2ccc(Oc3ccc(-c4ccn[nH]4)cn3)cc2)CO1 [Example 24, (4R)-4-[(4-{[5-(1H-pyrazol-5-yl)pyridin-2-yl]oxy}phenoxy)methyl]-1,3-oxazolidin-2-one]
25 | 123 | 0.5 | c1cc(-c2ccc(Cc3ccc(OCCN4CCOCC4)cc3)cc2)[nH]n1 [Example 25, 4-(2-{4-[4-(1H-pyrazol-5-yl)benzyl]phenoxy}ethyl)morpholine]
26 | 2110 | 1.2 | Cn1ccnc1COc1ccc(Oc2ccc(-c3ccn[nH]3)cc2)cc1 [Example 26, 5-(4-{4-[(1-methyl-1H-imidazol-2-yl)methoxy]phenoxy}phenyl)-1H-pyrazole]
27 | 1840 | 2.2 | c1cc(-c2ccc(Oc3ccc(OCc4cnc[nH]4)cc3)cc2)[nH]n1 [Example 27, 5-{4-[4-(1H-imidazol-5-ylmethoxy)phenoxy]phenyl}-1H-pyrazole]
28 | ≥ 5000 | 1.4 | c1ccc2[nH]c(COc3ccc(Oc4ccc(-c5ccn[nH]5)cc4)cc3)nc2c1 [Example 28, 2-({4-[4-(1H-pyrazol-5-yl)phenoxy]phenoxy}methyl)-1H-benzimidazole]
29 | 2280 | 4.9 | c1cncc(CCOc2ccc(Oc3ccc(-c4ccn[nH]4)cc3)cc2)c1 [Example 29, 3-(2-{4-[4-(1H-pyrazol-5-yl)phenoxy]phenoxy}ethyl)pyridine]
30 | ≥ 5000 | 65.6 | c1coc(COc2ccc(Oc3ccc(-c4ccn[nH]4)cc3)cc2)c1 [Example 30, 5-{4-[4-(2-furylmethoxy)phenoxy]phenyl}-1H-pyrazole]
31 | ≥ 5000 | 900 | CC(Cc1ccccc1)Oc1ccc(Oc2ccc(-c3ccn[nH]3)cc2)cc1 (centres unmarked) [Example 31, 5-{4-[4-(1-methyl-2-phenylethoxy)phenoxy]phenyl}-1H-pyrazole]
32 | ≥ 5000 | 360 | CC(COc1ccc(Oc2ccc(-c3ccn[nH]3)cc2)cc1)c1ccccc1 (centres unmarked) [Example 32, 5-{4-[4-(2-phenylpropoxy)phenoxy]phenyl}-1H-pyrazole]
33 | 3360 | 5.2 | c1ccc(CCOc2ccc(Oc3ccc(-c4ccn[nH]4)cc3)cc2)nc1 [Example 33, 2-(2-{4-[4-(1H-pyrazol-5-yl)phenoxy]phenoxy}ethyl)pyridine]
34 | 2540 | 1.5 | c1cncc(COc2ccc(Oc3ccc(-c4ccn[nH]4)cc3)cc2)c1 [Example 34, 3-({4-[4-(1H-pyrazol-5-yl)phenoxy]phenoxy}methyl)pyridine]
